From PMC8159352, “Differentiating Aβ40 and Aβ42 in amyloid plaques with a small molecule fluorescence probe” (Chemical Science, 2020)

Tests used:
[1] = molecular target: T1, Aβ40 (amyloid beta 40) fibrils (Homo sapiens, UniProt P05067); test: fluorescence titration of […] probe with fibrils; assay type: binding
T1 construct: gene APP; Aβ40 fibrils

[2] = molecular target: T2, Aβ42 (amyloid beta 42) fibrils (Homo sapiens, UniProt P05067); test: fluorescence titration of […] probe with fibrils; assay type: binding
T2 construct: gene APP; Aβ42 fibrils
T2 sequence (P05067 672-713 limits assumed): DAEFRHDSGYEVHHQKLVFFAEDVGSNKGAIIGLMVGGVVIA

T1 sequence (P05067 672-711 limits assumed): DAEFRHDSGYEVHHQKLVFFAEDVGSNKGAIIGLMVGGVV

## CN(C)c1ccc(-c2ccc3cc(-c4nc5ccccc5s4)c(=N)oc3c2)cc1 [ICTAD-1]
[1]
  Kd: 6.27 µM
[2]
  Kd: 3.78 µM
